This note sets out measurements from publication PMC9032718, “Eltrombopag as an Allosteric Inhibitor of the METTL3-14 Complex Affecting the m^6A Methylation of RNA in Acute Myeloid Leukemia Cells” (Pharmaceuticals, 2022).

The subject of experiment [1] is MOLM-13 cells. As to the kind of experiment: Anti-proliferative assay (EZ-cytox), MOLM-13. Format: cell-based. To be noted: Homo sapiens, MOLM-13, 72 h. On the procedure:
The MOLM-13, MOLM-14, HL60, MV4-11, and THP-1 cells were seeded in white 96-well clear bottomed plates with 100 μL of medium (5000 cells/well). The plated cells were treated with serially diluted compounds and incubated for 72 h at 37 °C. After incubation, 10 μL of EZ-cytox kit reagent from the EZ-cytox cell viability assay kit (DaeiLab, Seoul, Korea) was added to each well and then incubated for 3 h at 37 °C. The absorbance of metabolically active cells was measured at a wavelength of 450 nm using a Victor multilabel reader (PerkinElmer). The GI50 values were calculated by nonlinear regression analysis using OriginPro 9.1 software (OriginLab).

For experiment [2], the target named is T1, PRDM9 (Homo sapiens, UniProt Q9NQV7).
T1 construct: purchased Reaction Biology (Malvern, PA, USA), contract assay
T1 sequence (Q9NQV7 whole entry): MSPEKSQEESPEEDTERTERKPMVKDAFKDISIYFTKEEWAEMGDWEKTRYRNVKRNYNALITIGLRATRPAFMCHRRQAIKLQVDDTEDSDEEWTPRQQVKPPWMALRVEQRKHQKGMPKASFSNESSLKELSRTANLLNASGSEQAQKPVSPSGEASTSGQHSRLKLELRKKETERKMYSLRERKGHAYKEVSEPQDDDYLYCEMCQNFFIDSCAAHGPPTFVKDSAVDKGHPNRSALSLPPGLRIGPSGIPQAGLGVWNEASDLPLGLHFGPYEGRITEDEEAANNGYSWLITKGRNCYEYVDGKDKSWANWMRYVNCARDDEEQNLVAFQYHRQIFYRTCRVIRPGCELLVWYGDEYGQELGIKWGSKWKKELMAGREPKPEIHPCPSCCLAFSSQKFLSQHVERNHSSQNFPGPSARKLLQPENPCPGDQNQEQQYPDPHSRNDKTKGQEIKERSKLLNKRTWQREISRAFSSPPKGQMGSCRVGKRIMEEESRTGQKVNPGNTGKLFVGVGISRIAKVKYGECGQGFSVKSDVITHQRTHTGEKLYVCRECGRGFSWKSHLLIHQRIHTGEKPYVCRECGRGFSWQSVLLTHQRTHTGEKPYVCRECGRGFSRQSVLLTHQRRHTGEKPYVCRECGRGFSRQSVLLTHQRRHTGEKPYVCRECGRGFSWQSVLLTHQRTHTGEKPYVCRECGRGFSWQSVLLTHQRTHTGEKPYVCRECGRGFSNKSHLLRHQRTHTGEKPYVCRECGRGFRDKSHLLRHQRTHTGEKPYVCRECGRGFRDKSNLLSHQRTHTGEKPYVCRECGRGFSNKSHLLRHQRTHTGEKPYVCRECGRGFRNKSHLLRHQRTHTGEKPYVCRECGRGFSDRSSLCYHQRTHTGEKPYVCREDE
As to the kind of experiment: Methyltransferase selectivity panel (MT HotSpot radioisotope assay), PRDM9. To be noted: 10 μM eltrombopag. Format: biochemical. On the procedure:
(§1) The selectivity profile of eltrombopag was investigated by testing the level of inhibition in a methyltransferase panel. The inhibition of 7 […] methyltransferase was tested at Reaction Biology (Malvern, PA, USA) using a gold standard radioisotope-based MT assay (MT HotSpot^TM) with 10 μM of eltrombopag in duplicate.

For experiment [3], the system named is MOLM-13 cells. Put plainly: Combinatorial analysis of AML drugs with eltrombopag (EZ-cytox, Synergyfinder). Format: cell-based. To be noted: Homo sapiens, MOLM-13; for inhibition at 1.5 µM: MOLM-13, eltrombopag alone 1,500 nM; for inhibition at 3 µM: MOLM-13, eltrombopag alone 3,000 nM; for inhibition at 6 µM: MOLM-13, eltrombopag alone 6,000 nM; for inhibition at 12 µM: MOLM-13, eltrombopag alone 12,000 nM. On the procedure: The MOLM-13 cells were seeded in white 96-well clear bottomed plates with 50 μL of medium (5000 cells/well). The plated cells were treated with serially diluted eltrombopag and current AML drugs, including venetoclax, cytarabine, gilteritinib, and sorafenib, to a final volume of 100 μL and incubated for 72 h at 37 °C. After incubation, 10 μL of EZ-cytox kit reagent from the EZ-cytox cell viability assay kit (DaeiLab) was added to each well and then incubated for 3 h at 37 °C. The absorbance of metabolically active cells was measured at a wavelength of 450 nm using a Victor multilabel reader (PerkinElmer). The synergy scores of each combination were quantified by the HAS model, ZIP model, Loewe additivity model, and Bliss independence models using Synergyfinder software. Positive or negative synergy scores obtained through these models represent synergy and antagonism, respectively.

The test system of experiment [4] is m^6A methylation of MOLM-13 transcriptome. Put plainly: m^6A-seq and sequencing data analysis (differential methylation peaks, motifs, annotation, GO enrichment). Format: cell-based, human. The method, then: mRNA was purified using a GenElute™ mRNA Miniprep Kit (SIGMA, MRN10-1KT, St. Louis, MO, USA) according to the manufacturer’s protocol. Briefly, the total RNA was mixed with 2× Binding Solution and oligo(dT) beads, vortexed, and left for 10 min at room temperature. The beads:mRNA complex was passed through a GenElute spin filter/collection tube and washed twice with Wash Solution. The mRNA was eluted in an Elution Solution incubated at 70 °C.
m^6A-seq was performed using the EpiMark® N^6-Methyladenosine Enrichment Kit (NEB, E1610S). Briefly, 25 μL of Dynabeads™ Protein G (Invitrogen, 10004D) and 1 μL of N^6-Methyladenosine Antibody were incubated in a 4 °C rotator for 2 h. The purified mRNA was fragmented at 95 °C for 10 min in a fragmentation buffer (100 mM Tris (pH 8.0), 8 mM MgCl2) with spike-in control RNA (m^6A and unmodified, 0.1 fmol of each RNA). The fragmented RNA was concentrated with RNA Clean & Concentrator™-5 (ZYMO […], R1014, Irvine, CA, USA) and then 5% was saved as the input. The remaining 95% of the fragmented RNA was added to the beads/antibody complex. RNA was eluted in Buffer RLT (QIAGEN, 79216, Hilden, Germany), followed by ethanol precipitation and was used for sequencing library construction. All sequencing experiments were performed in triplicate via Novaseq. Adapter trimming and QC were performed using Trim Galore. Reads were mapped to hg38 by HISAT2 [56], and exomePeak and HOMER [58] were used to analyze the differential methylation peaks, motifs, and gene annotations.

The target of experiment [5] is T2, SMYD3 (Homo sapiens, UniProt Q9H7B4).
T2 construct: purchased Reaction Biology (Malvern, PA, USA), contract assay
T2 sequence (Q9H7B4 1-428): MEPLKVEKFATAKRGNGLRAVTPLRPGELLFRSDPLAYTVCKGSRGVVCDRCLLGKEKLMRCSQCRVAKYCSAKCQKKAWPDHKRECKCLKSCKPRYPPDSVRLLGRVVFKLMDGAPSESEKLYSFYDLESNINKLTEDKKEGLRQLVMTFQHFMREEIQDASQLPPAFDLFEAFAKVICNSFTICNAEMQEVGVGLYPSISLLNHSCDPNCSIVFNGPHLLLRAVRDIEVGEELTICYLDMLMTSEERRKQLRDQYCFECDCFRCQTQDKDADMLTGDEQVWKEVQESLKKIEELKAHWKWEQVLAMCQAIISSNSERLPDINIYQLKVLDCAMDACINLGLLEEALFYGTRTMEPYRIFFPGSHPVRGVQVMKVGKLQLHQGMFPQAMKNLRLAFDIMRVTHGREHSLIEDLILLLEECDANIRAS
Put plainly: Methyltransferase selectivity panel (MT HotSpot radioisotope assay), SMYD3. Conditions: 10 μM eltrombopag, SMYD3. Format: biochemical. The method, then:
as §1

Consider `CC1=NN(c2ccc(C)c(C)c2)C(=O)/C1=N\Nc1cccc(-c2cccc(C(=O)O)c2)c1O` [Eltrombopag], for which, in experiment [1], the GI50 (commonly the concentration that inhibits growth by half) was 8.28 µM. The remaining activity (commonly the signal under treatment as a percentage of the control signal) at 10 µM in experiment [2] was 130 ± 4%. Besides, in experiment [3] (cytarabine matrix (panel C)), the inhibition (in general, the percentage by which the read-out fell short of the control) at 1.5 µM worked out at 9.02 ± 5.05%; the inhibition at 3 µM stood at 24.8 ± 2.76%; the inhibition at 6 µM is 61.6 ± 1.03%; the inhibition at 12 µM stood at 93.83 ± 0.61%. In experiment [3] (venetoclax matrix (panel A)), the inhibition at 1.5 µM was determined as 13 ± 2.13%, the inhibition at 3 µM was determined as 30 ± 5.01%, the inhibition at 6 µM was found to be 69.4 ± 2.33% and the inhibition at 12 µM is 94.91 ± 0.86%. Also, in experiment [4] (MOLM-13, 25 μM eltrombopag), the “number of differential m^6A methylation sites” value was 10,723, the “share of differential m^6A sites hypomethylated” value is given as 71% and the share of hypermethylation entry was “about 30%”. For the same compound, in experiment [4] (eltrombopag-treated MOLM-13), the “share of hypomethylated genes that are noncoding-RNA (ncRNA)” value was determined as 17%, the “share of hypomethylated genes that are protein-coding” value was ~ 80% and the “share of hypomethylated genes that are pseudogenes” value turned out to be 3%. The remaining activity at 10 µM in experiment [5] turned out to be 98.7 ± 5.7%.
